According to EPA's ToxRefDB 2:

Legend:
rat [1] = conditions: Multigenerational reproductive toxicity study, other, Oral, Feed, dose end: 2 generation
mouse [2] = conditions: Carcinogenicity, cd1, Oral, Feed, dose end: 97 week, group: systemic
dog [3] = conditions: Chronic toxicity, beagle, Oral, Feed, dose end: 52 week
rat [4] = conditions: Prenatal developmental toxicity study, fischer, Oral, Feed, dose end: 15 GD
mouse [5] = conditions: Subchronic oral toxicity in rodents, cd1, Feed, dose end: 4 week, group: systemic
rat [6] = conditions: Subchronic oral toxicity in rodents, fischer, Feed, dose end: 13 week
rat [7] = conditions: Combined chronic toxicity/carcinogenicity, sprague dawley, Oral, Feed, dose end: 2 year
dog [8] = conditions: Subchronic oral toxicity in nonrodent, beagle, Feed, dose end: 6 month
dog [9] = conditions: Subchronic oral toxicity in nonrodent, beagle, Feed, dose end: 13 week, group: systemic, systemic / hematology / erythrocyte (rbc) count differential / erythrocyte (rbc) + systemic / in life observation / body weight / body …
primate [10] = conditions: Chronic toxicity, Oral, Gavage/Intubation, dose end: 182 day, group: systemic
rabbit = conditions: Prenatal developmental toxicity study, Oral, Gavage/Intubation, dose end: 19 GD, group: maternal
rat [11] = conditions: Sub-acute repeat dose toxicity, wistar, Oral, Feed, dose end: 14 day, group: systemic
rat [12] = conditions: Sub-acute repeat dose toxicity; wistar; Injection; Intravenous; dose end: 14 day; group: systemic; systemic / in life observation / clinical signs / skin discoloration + systemic / pathology microscopic / skin / inflammation + systemic / …
rat [13] = conditions: Fertility (Segment I); Oral; Gavage/Intubation; dose end: 1 generation; group: parental; systemic / in life observation / body weight / body weight gain + systemic / in life observation / food consumption / food consumption
primate [14] = conditions: Sub-acute repeat dose toxicity, Injection, Intravenous, dose end: 14 day, group: systemic
rat [15] = conditions: Sub-acute repeat dose toxicity, wistar, Oral, Gavage/Intubation, dose end: 14 day, group: systemic
[16] = group: offspring, developmental / offspring survival late / viability index / viability index
[17] = group: offspring, developmental / offspring survival late / viability index / viability index + systemic / in life observation / body weight / offspring (pup…
[18] = group: parental, systemic / in life observation / body weight / body weight + systemic / in life observation / body weight / body weight gain + systemic / in…
[19] = systemic / clinical chemistry / alanine aminotransferase (alt/sgpt) / alanine aminotransferase (alt/sgpt) + systemic / clinical chemistry / …
[20] = group: cholinesterase, cholinesterase / cholinesterase / cholinesterase / brain cholinesterase (che) + cholinesterase / cholinesterase / cholinesterase / …
[21] = group: cholinesterase, cholinesterase / cholinesterase / cholinesterase / plasma cholinesterase (che)
[22] = group: systemic, systemic / hematology / erythrocyte (rbc) count differential / erythrocyte (rbc) + systemic / hematology / hematocrit (hct) / hematocrit (…
[23] = group: developmental, developmental / developmental malformation / bone / bipartite ossification + developmental / developmental malformation / general / crown-…
[24] = group: maternal, systemic / in life observation / body weight / body weight gain + reproductive / reproductive performance / pregnancy / pregnancy + …
[25] = systemic / organ weight / spleen / absolute
[26] = group: cholinesterase, cholinesterase / cholinesterase / cholinesterase / brain cholinesterase (che)
[27] = group: systemic, systemic / clinical chemistry / calcium / calcium + systemic / hematology / leukocyte (wbc) count differential / leukocyte (wbc) + systemic…
[28] = group: cholinesterase, cholinesterase / cholinesterase / cholinesterase / erythrocyte cholinesterase (che)
[29] = group: cholinesterase, cholinesterase / cholinesterase / cholinesterase / erythrocyte cholinesterase (che) + cholinesterase / cholinesterase / cholinesterase / …
[30] = group: systemic, systemic / pathology microscopic / spleen / hematopoietic cell proliferation
[31] = group: systemic, systemic / pathology microscopic / spleen / hematopoietic cell proliferation + systemic / hematology / erythrocyte (rbc) count differential…
[32] = group: systemic, systemic / clinical chemistry / alanine aminotransferase (alt/sgpt) / alanine aminotransferase (alt/sgpt) + systemic / organ weight / liver…
[33] = systemic / clinical chemistry / protein / protein + systemic / hematology / red blood cell distribution width (rdw) / red blood cell …
[34] = systemic / pathology gross / lymph node / enlarged + systemic / in life observation / clinical signs / salivation + systemic / in life …
[35] = reproductive / reproductive performance / aborted / aborted + systemic / in life observation / body weight / body weight + systemic / in …
[36] = systemic / hematology / [other] / [other] + systemic / hematology / erythrocyte (rbc) count differential / erythrocyte (rbc) + systemic / …
[37] = systemic / hematology / erythrocyte (rbc) count differential / erythrocyte (rbc) + systemic / hematology / hematocrit (hct) / hematocrit (…
[38] = systemic / clinical chemistry / albumin / albumin + systemic / clinical chemistry / globulins / globulins + systemic / clinical chemistry / …
[39] = systemic / hematology / hematocrit (hct) / hematocrit (hct) + systemic / in life observation / body weight / body weight + systemic / in …
[40] = systemic / hematology / hematocrit (hct) / hematocrit (hct) + systemic / hematology / hemoglobin (hgb) / hemoglobin (hgb) + systemic / …

CSC(C)=NOC(=O)N(C)SN(C)C(=O)ON=C(C)SC [Thiodicarb]
LOAEL (rat [1]; [16]): 5 mg/kg/day | NOAEL (rat [1]; [16]): < 5 mg/kg/day | LEL (rat [1]; [17]): 5 mg/kg/day | NEL (rat [1]; [17]): < 5 mg/kg/day | LEL (rat [1]; [18]): 15 mg/kg/day | LOAEL (rat [1]; [18]): 15 mg/kg/day | NEL (rat [1]; [18]): 5 mg/kg/day | NOAEL (rat [1]; [18]): 5 mg/kg/day | LOAEL (mouse [2]; [19]): 1000 mg/kg/day | NOAEL (mouse [2]; [19]): 70 mg/kg/day | NEL (mouse [2]; systemic / in life observation / body weight / body weight + systemic / organ weight / kidney / absolute + systemic / organ weight / kidney…): 5 mg/kg/day | LEL (mouse [2]; systemic / pathology gross / spleen / enlarged + systemic / organ weight / liver / absolute + systemic / organ weight / spleen / absolute + …): 70 mg/kg/day | LOAEL (dog [3]; [20]): 12.8 mg/kg/day | NOAEL (dog [3]; [20]): 4.4 mg/kg/day | LEL (dog [3]; [21]): 4.5 mg/kg/day | NEL (dog [3]; [21]): < 4.5 mg/kg/day | LEL (dog [3]; [22]): 38.3 mg/kg/day | LOAEL (dog [3]; [22]): 38.3 mg/kg/day | NEL (dog [3]; [22]): 12.8 mg/kg/day | NOAEL (dog [3]; [22]): 12.8 mg/kg/day | LEL (rat [4]; [23]): 100 mg/kg/day | LOAEL (rat [4]; [23]): 100 mg/kg/day | NEL (rat [4]; [23]): 3 mg/kg/day | NOAEL (rat [4]; [23]): 3 mg/kg/day | LEL (rat [4]; group: maternal, reproductive / reproductive performance / pregnancy / pregnancy): 3 mg/kg/day | LOAEL (rat [4]; group: maternal, systemic / in life observation / body weight / body weight gain): 1 mg/kg/day | NEL (rat [4]; [24]): 1 mg/kg/day | NOAEL (rat [4]; [24]): 0.5 mg/kg/day | LOAEL (mouse [5]; systemic / in life observation / body weight / body weight gain): 734 mg/kg/day | LEL (mouse [5]; [25]): 6.2 mg/kg/day | NEL (mouse [5]; [25]): < 6.2 mg/kg/day | NOAEL (mouse [5]; systemic / organ weight / spleen / absolute + systemic / in life observation / body weight / body weight gain + systemic / in life …): 346 mg/kg/day | LEL (rat [6]; [26]): 30 mg/kg/day | LOAEL (rat [6]; [26]): > 30 mg/kg/day | NEL (rat [6]; [26]): 10 mg/kg/day | NOAEL (rat [6]; [26]): ≥ 30 mg/kg/day | LOAEL (rat [6]; [27]): > 30 mg/kg/day | NEL (rat [6]; [27]): 3 mg/kg/day | NOAEL (rat [6]; [27]): ≥ 30 mg/kg/day | LEL (rat [6]; group: systemic, systemic / hematology / leukocyte (wbc) count differential / leukocyte (wbc) + systemic / in life observation / body weight / body weight): 10 mg/kg/day | LEL (rat [7]; [28]): 15 mg/kg/day | LOAEL (rat [7]; [28]): 15 mg/kg/day | NEL (rat [7]; [29]): 4.5 mg/kg/day | NOAEL (rat [7]; [29]): 4.5 mg/kg/day | LEL (rat [7]; [30]): 12 mg/kg/day | LOAEL (rat [7]; [30]): 12 mg/kg/day | NEL (rat [7]; [31]): 3.3 mg/kg/day | NOAEL (rat [7]; [31]): 3.3 mg/kg/day | LEL (dog [8]; [29]): 45 mg/kg/day | LOAEL (dog [8]; [29]): 45 mg/kg/day | NEL (dog [8]; [29]): 15 mg/kg/day | NOAEL (dog [8]; [29]): 15 mg/kg/day | LEL (dog [8]; [32]): 45 mg/kg/day | LOAEL (dog [8]; [32]): 45 mg/kg/day | NEL (dog [8]; [32]): 15 mg/kg/day | NOAEL (dog [8]; [32]): 15 mg/kg/day | LEL (dog [9]): 40 mg/kg/day | LOAEL (dog [9]): 40 mg/kg/day | NEL (dog [9]): 15 mg/kg/day | NOAEL (dog [9]): 15 mg/kg/day

CCC(C)C(NC(=O)c1ccccc1SSc1ccccc1C(=O)NC(C(=O)O)C(C)CC)C(=O)O (stereo not drawn) [CI-1012]
LOAEL (primate [10]; [33]): > 250 mg/kg/day | NOAEL (primate [10]; [33]): ≥ 250 mg/kg/day | LEL (primate [10]; [34]): 50 mg/kg/day | NEL (primate [10]; [34]): < 50 mg/kg/day | LOAEL (rabbit; [35]): > 250 mg/kg/day | NEL (rabbit; [35]): 25 mg/kg/day | NOAEL (rabbit; [35]): ≥ 250 mg/kg/day | LEL (rabbit; reproductive / reproductive performance / aborted / aborted + systemic / in life observation / body weight / body weight gain + systemic / …): 100 mg/kg/day | LOAEL (rat [11]; [36]): > 1500 mg/kg/day | NOAEL (rat [11]; [36]): ≥ 1500 mg/kg/day | LEL (rat [11]; [37]): 250 mg/kg/day | NEL (rat [11]; [37]): 100 mg/kg/day | LEL (rat [12]): 25 mg/kg/day | LOAEL (rat [12]): > 100 mg/kg/day | NEL (rat [12]): < 25 mg/kg/day | NOAEL (rat [12]): ≥ 100 mg/kg/day | LEL (rat [13]): 100 mg/kg/day | LOAEL (rat [13]): > 500 mg/kg/day | NEL (rat [13]): 50 mg/kg/day | NOAEL (rat [13]): ≥ 500 mg/kg/day | LEL (primate [14]; [38]): 75 mg/kg/day | NEL (primate [14]; [38]): 25 mg/kg/day | LOAEL (primate [14]; [39]): > 125 mg/kg/day | NOAEL (primate [14]; [39]): ≥ 125 mg/kg/day | LOAEL (rat [15]; [40]): > 1500 mg/kg/day | NEL (rat [15]; [40]): 100 mg/kg/day | NOAEL (rat [15]; [40]): ≥ 1500 mg/kg/day | LEL (rat [15]; systemic / organ weight / spleen / absolute + systemic / pathology microscopic / stomach / hyperplasia): 250 mg/kg/day
